Assays:
MC38 = test: scratch test of MC38; format: cell-based; details: concentrations such as 5 μM, 10 μM or 20 μM; FIGS. 3-7
Procedure: Different concentrations of PDE4 inhibitors, such as 5 μM, 10 μM, or 20 μM, were administered to verify the inhibitory effect on metastasis in the scratch test of MC38.

MC38 cells [1] = test: subcutaneous tumor model, colon cancer cells such as MC38; format: in vivo, C57 mice; details: e.g. 4 mg/kg + 2 mg/kg i.p. every 3 days, 6 doses
Procedure: (1) Tumorigenesis in mice. 6-8 week-old C57 female mice were selected. Colon cancer cells, such as MC38 cells, were cultured in vitro to logarithmic phase, collected, and resuspended in a PBS buffer solution. The collected cells were subcutaneously injected into the leg of mice with 5×10^5 cells per mice to establish a subcutaneous tumor model.
(2) After tumorigenesis, the mice were divided into four experimental groups including a blank control, a PDE4 inhibitor group, an immune checkpoint inhibitor group, and a PDE4 inhibitor+immune checkpoint inhibitor group. The mice in the PDE4 inhibitor+immune checkpoint inhibitor group were sequentially intraperitoneally injected with, e.g., 4 mg/kg of PDE4 inhibitor and, e.g., 2 mg/kg of immune checkpoint inhibitor (e.g., a PD-L1 antibody) every 3 days, with 6 doses in total, while the PDE4 inhibitor group and the immune checkpoint inhibitor group were separately injected with the same dose of PDE4 inhibitor and the immune checkpoint inhibitor in the same manner, and the blank control was injected with the same dose of normal saline. The day of the first injection was taken as day 1. The mice were detected for the weight and tumor size and recorded: the tumor volume (mm^3)=length (L)×width (W)^2/2, and then subject to Luciferin fluorescence imaging of tumor. That is, each mouse was intraperitoneally injected with 100 μL of 1 mg/mL aqueous solution of D-Luciferin potassium as formulated. 10 min after injection, the mice were subject to Luciferin fluorescence imaging using a Small Animal Liver Imaging System (model: IVIS Lumina XRMS Series III).
(1) Tumorigenesis in mice. 6-8 week-old C57 female mice were selected. […]

MC38 cells [2] = test: tumor metastasis model, MC38 cells injected into the spleen of mice; format: in vivo, C57 mice; details: 4 mg/kg intraperitoneally every 3 days, 6 doses; FIGS. 1A and 1B
Procedure: In use, DMSO was used as the solvent for Oxaliplatin and Roflumilast. (1) Tumorigenesis in mice. 6-8 week-old C57 female mice were selected. MC38 cells were cultured in vitro to logarithmic phase, collected, and resuspended in a PBS buffer solution. The collected cells were injected into the spleen of mice through surgery with 5×10^5 MC38 cells per mouse to establish a tumor metastasis model. […] The day of the first injection was taken as Day 1. Then, the mice were detected for weight and recorded, and subject to Luciferin fluorescence imaging. That is, each mouse was intraperitoneally injected with 100 μL of 1 mg/mL aqueous solution of potassium D-Luciferin as formulated. 10 min after injection, the mice were subject to Luciferin fluorescence imaging using a Small Animal […] Imaging System (model: IVIS Lumina XRMS Series III).

breast tumor cells 4T1 = test: mouse model of lung metastasis of breast cancer; format: in vivo; details: 4T1 lung metastasis model; FIG. 8
Lymphoma cells = test: subcutaneous tumor model, lymphoma cells; format: in vivo, C57 mice; details: in combination with anti-PD-L1 antibody; e.g. 4 mg/kg + 2 mg/kg i.p. every 3 days, 6 doses
Procedure: (§1) (1) Tumorigenesis in mice. 6-8 week-old C57 female mice were selected. Lymphoma cells were cultured in vitro to logarithmic phase, collected, and resuspended in a PBS buffer solution. The collected cells were subcutaneously injected into the leg of mice with 5×10^5 cells per mouse to establish a subcutaneous tumor model. (2) After tumorigenesis, the mice were divided into four experimental groups including a blank control, a PDE4 inhibitor group, an immune checkpoint inhibitor group, and a PDE4 inhibitor+immune checkpoint inhibitor group. The mice in the PDE4 inhibitor+immune checkpoint inhibitor group were sequentially intraperitoneally injected with e.g. 4 mg/kg of PDE4 inhibitor and e.g. 2 mg/kg of immune checkpoint inhibitor (e.g., an PD-L1 antibody) every 3 days, with 6 doses in total, while the PDE4 inhibitor group and the immune checkpoint inhibitor group were separately injected with the same dose of PDE4 inhibitor and immune checkpoint inhibitor in the same manner, and the blank control was injected with the same dose of normal saline. […] The mice were detected for weight and tumor size and recorded: tumor volume (mm^3)=length (L)×width (W)^2/2, and then subject to Luciferin fluorescence imaging of tumor. […] 10 min after injection, the mice were subject to Luciferin fluorescence imaging using a Small Animal Live Imaging System (model: IVIS Lumina XRMS Series III).

Breast cancer cells = test: subcutaneous tumor model, breast cancer cells; format: in vivo, C57 mice; details: e.g. 4 mg/kg + 2 mg/kg i.p. every 3 days, 6 doses
Procedure: (§2) (1) Tumorigenesis in mice. 6-8 week-old C57 female mice were selected. Breast cancer cells were cultured in vitro to logarithmic phase, collected, and resuspended in a PBS buffer solution. The collected cells were subcutaneously injected into the leg of mice with 5×10^5 cells per mouse to establish a subcutaneous tumor model. (2) After tumorigenesis, the mice were divided into four experimental groups including a blank control, a PDE4 inhibitor group, an immune checkpoint inhibitor group, and a PDE4 inhibitor+immune checkpoint inhibitor group. […] The mice were detected for weight and tumor size and recorded: tumor volume (mm^3)=length (L)×width (W)^2/2, and then subject to Luciferin fluorescence imaging of tumor. […] 10 min after injection, the mice were subject to Luciferin fluorescence imaging using a Small Animal Live Imaging System (model: IVIS Lumina XRMS Series III). […] The mice were detected for weight and tumor size and recorded: tumor volume (mm^3)=length (L)×width (W)^2/2, and then subject to Luciferin fluorescence imaging of tumor. […] 10 min after injection, the mice were subject to Luciferin fluorescence imaging using a Small Animal Live Imaging System (model: IVIS Lumina XRMS Series III).

Melanoma cells = test: subcutaneous tumor model, melanoma cells; format: in vivo, C57 mice; details: e.g. 4 mg/kg + 2 mg/kg i.p. every 3 days, 6 doses
Procedure: as §2, with “Melanoma” for “Breast cancer”

Hematologic tumor cells = test: subcutaneous tumor model, hematologic tumor cells; format: in vivo, C57 mice; details: in combination with anti-PD-L1 antibody; e.g. 4 mg/kg + 2 mg/kg i.p. every 3 days, 6 doses
Procedure: as §1, with “Hematologic tumor” for “Lymphoma”

[3] = in combination with anti-PD-1 antibody
[4] = in combination with anti-PD-L1 antibody

## O=C(Nc1c(Cl)cncc1Cl)c1ccc(OC(F)F)c(OCC2CC2)c1 [Roflumilast]
MC38
  inhibitory effect on metastasis in the scratch test: inhibiting metastasis
MC38 cells [1]; in combination with anti-CTLA-4 antibody
  inhibition of tumor growth: Synergistically Inhibiting Growth of Colon Cancer
MC38 cells [1]; in combination with anti-LAG-3 antibody
  inhibition of tumor growth: Synergistically Inhibiting Growth of Colon Cancer
MC38 cells [1]; [3]
  inhibition of tumor growth: Synergistically Inhibiting Growth of Colon Cancer
MC38 cells [2]
  inhibition of tumor metastasis (Luciferin fluorescence imaging): Capable of Inhibiting Tumor Metastasis
Breast tumor cells 4T1
  inhibitory effect on tumor metastasis: significant inhibitory effect on tumor metastasis
Lymphoma cells
  inhibition of tumor growth: Synergistically Inhibiting Growth of Lymphoma
Breast cancer cells; [3]
  inhibition of tumor growth: Synergistically Inhibiting Growth of Breast Cancer
Breast cancer cells; [4]
  inhibition of tumor growth: Synergistically Inhibiting Growth of Breast Cancer
Melanoma cells; [3]
  inhibition of tumor growth: Synergistically Inhibiting Growth of Melanoma
Melanoma cells; [4]
  inhibition of tumor growth: Synergistically Inhibiting Growth Of Melanoma
Hematologic tumor cells
  inhibition of tumor growth: Synergistically Inhibiting Growth of Hematologic Tumor

## COc1cccc(Nc2c(C(N)=O)cnc3c(C)cc(S(=O)(=O)c4cccc(C(=O)N(C)C)c4)cc23)c1 [GSK256066]
MC38
  inhibitory effect on metastasis in the scratch test: inhibiting the results of metastasis

## O=C(O)Cc1ccc(Cc2cc(-c3cccc(Cl)c3)nc(C(F)(F)F)c2)cc1 [BPN14770, Benzeneacetic acid, 4-[[2-(3-chlorophenyl)-6-(trifluoromethyl)-4-pyridinyl]methyl]-]
MC38
  inhibitory effect on metastasis in the scratch test: inhibiting metastasis

## OCCN(CCO)c1nc(N2CCCCC2)c2nc(N(CCO)CCO)nc(N3CCCCC3)c2n1 [Dipyridamole]
MC38
  inhibitory effect on metastasis in the scratch test: inhibiting metastasis

## COc1ccc(C2CNC(=O)C2)cc1OC1CCCC1 (stereo not shown) [Rolipram, 4-(3-cyclopentyloxy-4-methoxyphenyl)pyrrolidin-2-one]
MC38
  inhibitory effect on metastasis in the scratch test: inhibiting metastasis
